What is called pIC50 is the negative decadic logarithm of the IC50, by convention in mol/L. A low value points to a high IC50. What is called pKd is the Kd on a negative log10 scale, so that one unit is a factor of ten.

The text below walks through data of ChEMBL document CHEMBL5532740, “Optimization of a Novel DEL Hit That Binds in the Cbl-b SH2 Domain and Blocks Substrate Binding” (ACS Med Chem Lett, 2024).

Test [1] has as its target T1, E3 ubiquitin-protein ligase CBL-B (Homo sapiens, UniProt Q13191). The test is described as follows: Inhibition of active phospho Cbl-b (unknown origin) using His-phospho ZAP70 as substrate incubated for 30 mins followed by substrate addition and measured after 30 mins by TR-FRET assay. For orientation: Time-resolved FRET reads energy transfer from a long-lived donor to a nearby acceptor.

Test [2] has as its target T1, E3 ubiquitin-protein ligase CBL-B. The test is described as follows: Binding affinity to N-terminal Avi-tagged biotinylated human Cbl-b (40 to 426 residues) expressed in Escherichia coli by SPR assay. (In general: In SPR one partner is held on a chip, and binding of the other changes the refractive index at the surface.)

pIC50, pKd: −log10 of the molar value.

T1 sequence (Q13191 whole entry): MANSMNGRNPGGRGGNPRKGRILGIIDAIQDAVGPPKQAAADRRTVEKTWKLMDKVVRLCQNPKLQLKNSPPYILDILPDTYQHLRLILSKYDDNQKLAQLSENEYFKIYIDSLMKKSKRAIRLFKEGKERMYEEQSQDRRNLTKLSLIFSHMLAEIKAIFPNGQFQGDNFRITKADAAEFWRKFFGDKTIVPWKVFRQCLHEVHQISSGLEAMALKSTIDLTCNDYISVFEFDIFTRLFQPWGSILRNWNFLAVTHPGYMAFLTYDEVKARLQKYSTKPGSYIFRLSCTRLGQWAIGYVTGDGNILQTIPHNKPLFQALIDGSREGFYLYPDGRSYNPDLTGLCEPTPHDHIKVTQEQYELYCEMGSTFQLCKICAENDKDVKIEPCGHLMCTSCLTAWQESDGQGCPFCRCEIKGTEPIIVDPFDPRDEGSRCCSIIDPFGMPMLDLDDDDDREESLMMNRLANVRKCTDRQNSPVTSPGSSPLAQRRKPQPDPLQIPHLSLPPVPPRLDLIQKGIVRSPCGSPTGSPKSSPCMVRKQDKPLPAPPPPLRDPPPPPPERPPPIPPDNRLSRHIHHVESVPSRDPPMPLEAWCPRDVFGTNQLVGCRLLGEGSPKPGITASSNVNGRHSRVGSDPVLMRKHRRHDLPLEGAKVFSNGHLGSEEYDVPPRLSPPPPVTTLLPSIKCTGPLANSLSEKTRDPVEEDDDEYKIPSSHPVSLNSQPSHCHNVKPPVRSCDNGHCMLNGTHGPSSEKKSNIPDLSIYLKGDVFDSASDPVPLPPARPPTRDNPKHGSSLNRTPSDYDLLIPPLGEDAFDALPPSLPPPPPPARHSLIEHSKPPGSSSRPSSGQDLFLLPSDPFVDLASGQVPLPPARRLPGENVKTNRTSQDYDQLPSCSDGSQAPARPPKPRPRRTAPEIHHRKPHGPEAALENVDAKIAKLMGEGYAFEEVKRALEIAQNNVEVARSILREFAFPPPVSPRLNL

On to `CCOC(=O)COc1c(OC)cc([N+](=O)[O-])cc1[C@@H]1N(C)C(=O)[C@H](C)N1C(=O)Cc1c(OC)ccc2c1Oc1c(ccc(OC)c1CC(=O)O)C2(C)C`, for which, in test [1], the pIC50 was 6.05.
The compound `COc1ccc2c(c1CC(=O)O)Oc1c(ccc(OC)c1CC(=O)N1[C@H](c3cc([N+](=O)[O-])cc(OC)c3OCC(=O)O)N(C)C(=O)[C@@H]1C)C2(C)C` gave a pKd in test [2] of 6.55. The pIC50 in test [1] was 6.47.
The like results for `COc1ccc2c(c1CC(=O)O)Oc1c(ccc(OC)c1CC(=O)N1[C@@H](C)C(=O)N(C)[C@@H]1c1cc([N+](=O)[O-])cc(OC)c1OCC(=O)O)C2(C)C` were, in that order, 4.36 and less than 4.70.
On to `CCN1C(=O)[C@H](C)N(C(=O)Cc2c(OC)ccc3c2Oc2c(ccc(OC)c2CC(=O)O)C3(C)C)[C@@H]1c1cc([N+](=O)[O-])cc(OC)c1OCC(=O)O`, for which, in test [1], the pIC50 is 6.52.
With `CC[C@H]1C(=O)N(C)[C@@H](c2cc([N+](=O)[O-])cc(OC)c2OCC(=O)O)N1C(=O)Cc1c(OC)ccc2c1Oc1c(ccc(OC)c1CC(=O)O)C2(C)C`, in test [1], the pIC50 was 6.11.
The compound `CCOc1c(OC)cc([N+](=O)[O-])cc1[C@@H]1N(C)C(=O)[C@H](C)N1C(=O)Cc1c(OC)ccc2c1Oc1c(ccc(OC)c1C(=O)NS(C)(=O)=O)C2(C)C` showed a pIC50 in test [1] of less than 4.70.
